Assay results published in patent US20240197700A1, “Methods and Compositions for Treating Lysosomal Storage Disorders” (Sanford Health, priority 2021, published 2024).

Columns and labels:
[1] = test system: Cln3^Δex7/8 mice; assay: SubC burden (immunohistochemistry) in brain of Cln3^Δex7/8 mice; type: in vivo, mouse
[2] = test system: NCL MEFs; assay: LysoTracker signal in Batten disease mouse embryonic fibroblasts; type: cell-based
Experimental: Wild type (WT) and mutant cells were treated with vehicle or LM11A-31 (100 nM, 1 μM, 10 μM). Cells were plated on day 0 and dosed with drug-containing media on DIV3 and DIV5. Concentrations of drug are shown on the x-axis above each image column; genotypes are shown to the left of each row. […] Increasing concentrations of LM11A-31 are shown along the x-axis.
Specific experimental details are included in figure legends. In general, after collection and preparation, MEFs and PNCs were dosed with vehicle or semaglutide (10 nM, 100 nM. or 1 μM) on DIV3 and DIV5. On DIV7, cells were exposed to the following dyes: Hoechst 33342 (1:1000 dilution), LysoTracker™ Red DND-99 (1:10,000 dilution), fixed. and imaged. Mice were injected three times per week with vehicle or semaglutide (2.571 μg/mouse, 25.71 μg/mouse) beginning at wean. Body weight was measured at 4, 6, 8, 12, and 16 weeks of age. At 16 weeks of age, Cln3^Δex7/8 mice along with age matched wildtype control mice were CO2 euthanized and intracardially perfused with PBS. Brains were collected and placed on a 1 mm sagittal brain block. Brains were sliced at the midline and 3 mm right of the midline. The 3 mm sagittal piece was flash frozen with −50° C. isopentane and then sectioned on a cryostat at 16 μm and placed on slides. For ASM measurements, slides were counterstained with DAPI. The other hemisphere was fixed in 4% PFA and sectioned at 50 microns on a vibratome. Immunohistochemistry was performed on free-floating sections. For SubC, GFAP, and CD68 immunolabeling, primary antibodies included mitochondrial anti-ATP synthase subunit C (Abcam, ab181243; 1:1000), anti-GFAP (Dako, Z0334; 1:5000), anti-CD68 (AbD Serotec, MCA1957; 1:2000), and secondary antibodies included anti-rabbit biotinylated (Vector Labs, BA-1000 1:1000) and anti-rat (Vector Labs, BA-9400 1:1000). Coverslips were mounted on slides using antifade-mounting media and were stored in the dark before imaging. ASM slides were imaged on a Nikon ECLIPSE™ Ni-E upright microscope with a CoolSNAP™ DYNO camera. Images were extracted from S1BF of the somatosensory cortex, CA3 of the hippocampus, and the VPM/VPL of the thalamus, with multiple images taken of multiple tissues from each animal. IHC slides were imaged and analyzed using an Aperio Digital Pathology Slide Scanner (AT2) and associated software. Images were extracted from the S1BF of the somatosensory cortex, the CA3 of the hippocampus, and the VPM/VPL of the thalamus.
The glucagon-like peptide-1 (GLP-1) analogue, semaglutide is an FDA approved type II diabetes drug. It has been shown in previous reports that GLP1 receptor (GLP1R) agonists decrease the release of inflammatory cytokines by modulating microglial activity, but existing studies have not examined any activity on lysosome-related pathways. To test whether GLP1R agonism would reduce Batten disease pathology, we tested semaglutide in Batten disease cell models (FIGS. 18-19). Wild type (WT) and mutant mouse embryonic fibroblasts (MEFs) were treated with vehicle or semaglutide (10 nM, 100 nM, 1 μM; see FIG. 18). Cells were plated on in vitro day 0 and dosed with drug-containing media on DIV3 and DIV5. Analysis occurred on DIV7. Concentrations of drug are shown on the x-axis above each image column; genotypes are shown to the left of each row. […] Increasing concentrations of semaglutide are shown along the x-axis. […] Treatment with semaglutide (10 nM, 100 nM, 1 μM) had no impact on the accumulation of autofluorescent storage material (ASM) in Cln1^R151X, Cln2^R207X, Cln3^Δex7/8, Cln6^nclf, and Cln8^mnd MEFs (FIG. 18B).

Which SubC accumulation ([1]; overall statement, short term treatment, Cln3^Δex7/8) does the source give for Cc1cccc(NC(=O)c2ccc(C(F)(F)F)cc2C(=O)O)n1 [AF38469, 2-((6-methylpyridin-2-yl)carbamoyl)-5-(trifluoromethyl)benzoic acid] here?
Its SubC accumulation is “reduces”.

What about the LysoTracker signal ([2]; 40 nM, 400 nM, 4 μM, Cln1^R151X, Cln2^R207X, Cln6^nclf, Cln8^mnd, Cln11^−/− MEFs, DIV7, vs NCL vehicle) of the same compound?
Its LysoTracker signal is “significantly reduced”.

And the LysoTracker signal ([2]; 40 nM, Cln3^Δex7/8 MEFs, DIV7)?
The LysoTracker signal was “significantly increased”.

What about the LysoTracker signal ([2]; 400 nM, Cln3^Δex7/8 MEFs, DIV7) of the same compound?
The LysoTracker signal was “significantly reduced”.

And the LysoTracker signal ([2]; 4 μM, Cln3^Δex7/8 MEFs, DIV7)?
Its LysoTracker signal is “had no impact”.

Which SubC burden ([1]; semaglutide 2.571 μg/mouse s.c., CA3 of the hippocampus) does the source give for semaglutide here?
The SubC burden was “had no significant effect”.

What about the SubC burden ([1]; semaglutide 2.571 μg/mouse s.c., VPM/VPL of the thalamus) of the same compound?
Its SubC burden is “had no significant effect”.

And the “accumulation of mitochondrial ATP synthase subunit C (SubC)” value ([1]; semaglutide 2.571 μg/mouse, 25.71 μg/mouse s.c., S1BF of the somatosensory cortex)?
Its value is “had no significant effect”.

What about the SubC burden ([1]; semaglutide 25.71 μg/mouse s.c., CA3 of the hippocampus) of the same compound?
The SubC burden was “significantly reduced”.

And the SubC burden ([1]; semaglutide 25.71 μg/mouse s.c., VPM/VPL of the thalamus)?
Its SubC burden is “significantly elevated”.

What about the LysoTracker signal ([2]; semaglutide 10 nM and 100 nM, Cln8^mnd MEFs) of the same compound?
The LysoTracker signal was “had no impact”.

What about the LysoTracker signal ([2]; semaglutide 10 nM, 100 nM, 1 μM, Cln1^R151X and Cln6^nclf MEFs) of the same compound?
Its LysoTracker signal is “had no impact”.

What about the LysoTracker signal ([2]; semaglutide 10 nM, 100 nM, 1 μM, Cln2^R207X MEFs) of the same compound?
Its LysoTracker signal is “significantly reduced”.

What about the LysoTracker signal ([2]; semaglutide 10 nM, Cln3^Δex7/8 MEFs) of the same compound?
The LysoTracker signal was “had no impact”.

What about the LysoTracker signal ([2]; semaglutide 100 nM, 1 μM, Cln3^Δex7/8 MEFs) of the same compound?
Its LysoTracker signal is “significantly reduced”.

And the LysoTracker signal ([2]; semaglutide 1 μM, Cln8^mnd MEFs)?
Its LysoTracker signal is “significantly reduced”.

Which LysoTracker signal ([2]; LM11A-31 100 nM, NCL MEFs) does the source give for CC[C@H](C)[C@H](N)C(=O)NCCN1CCOCC1 [LM11A-31, N-[2-(morpholin-4-yl)ethyl]-L-isoleucinamide] here?
Its LysoTracker signal is “had no impact”.

And the LysoTracker signal ([2]; LM11A-31 1 μM (mid dose), Cln1^R151X, Cln2^R207X MEFs)?
The LysoTracker signal was “significantly reduced”.

What about the LysoTracker signal ([2]; LM11A-31 1 μM, Cln3^Δex7/8, Cln6^nclf, Cln8^mnd MEFs) of the same compound?
Its LysoTracker signal is “decreasing trend”.

What about the LysoTracker signal ([2]; LM11A-31 10 μM, Cln1^R151X and Cln2^R207X MEFs) of the same compound?
The LysoTracker signal was “decreasing trend”.

What about the LysoTracker signal ([2]; LM11A-31 varying doses, Cln3^Δex7/8 and Cln6^nclf MEFs) of the same compound?
Its LysoTracker signal is “decreasing trend”.
